The results in this text go back to ChEMBL document CHEMBL1133130, “Synthesis and evaluation of geldanamycin-testosterone hybrids” (Bioorg Med Chem Lett, 2000).

Each structure is given as a SMILES string.

Format in all cases: functional, cell-based
The test system of one assay is COLO 205. Briefly: Compound was evaluated for cytotoxicity against COLO 205 colon cancer cells ([…] cells). The settings on record: Homo sapiens.
A short description of assay [1]: Compound was evaluated for cytotoxicity against MDA-468 breast cancer cells ([…] cells). The conditions noted are these: Homo sapiens, MDA-MB-468.
The subject of assay [2] is LNCaP. The assay can be described thus: Compound was evaluated for cytotoxicity against LNCaP prostate cancer cells (AR dependent cells). The conditions noted are these: Homo sapiens.
A further assay has as its system MCF7. The assay can be described thus: Compound was evaluated for cytotoxicity against MCF-7 breast cancer cells ([…] cells). The conditions noted are these: Homo sapiens.
Assay [3] in a line: Compound was evaluated for cytotoxicity against LAPC4 prostate cancer cells (AR dependent cells). The conditions noted are these: Homo sapiens.
The subject of assay [4] is LNCaP. The assay can be described thus: Compound was evaluated for cytotoxicity against LNCaP prostate cancer cells. The conditions noted are these: Homo sapiens.
The subject of another assay is PC-3. The assay can be described thus: Compound was evaluated for cytotoxicity against PC3 prostate cancer cells ([…] cells). The settings on record: Homo sapiens.

For `COC1=C2C[C@H](C)C[C@H](OC)[C@@H](O)[C@H](C)/C=C(\C)C[C@H](OC(N)=O)[C@@H](OC)/C=C\C=C(/C)C(=O)NC(=CC1=O)C2=O`, the IC50 worked out at 20 nM in the assay with COLO 205; 20 nM in assay [1]; 40 nM in the assay with LNCaP [2]; 30 nM in the assay on MCF7; 25 nM in assay [3]; 40 nM in the assay on LNCaP [4]. This molecule also displayed an IC50 in the assay on PC-3 of 30 nM.

In turn, `CO[C@H]1/C=C\C=C(/C)C(=O)NC2=CC(=O)C(NCCCC/C=C\[C@]3(O)CC[C@@]4(C)C5CC=C6CC7(CC[C@]6(C)[C@@]5(C)CC[C@@]43C)OCCO7)=C(C[C@H](C)C[C@H](OC)[C@@H](O)[C@H](C)/C=C(\C)C[C@@H]1OC(N)=O)C2=O` (stereo partly specified) returned an IC50 in the assay with LNCaP [4] greater than 1000 nM.

For `CO[C@H]1/C=C\C=C(/C)C(=O)NC2=CC(=O)C(NCCCCC#C[C@]3(O)CC[C@@]4(C)C5CCC6=CC(=O)CC[C@]6(C)[C@@]5(C)CC[C@@]43C)=C(C[C@H](C)C[C@H](OC)[C@@H](O)[C@H](C)/C=C(\C)C[C@@H]1OC(N)=O)C2=O` (stereo partly specified), the IC50 in the assay on COLO 205 was found to be 200 nM; in assay [1], 240 nM; with LNCaP [2], 100 nM; in the assay on MCF7, 300 nM; in assay [3], 40 nM; in the assay with LNCaP [4], 100 nM. Further, in the assay on PC-3, half-maximal inhibition (IC50) was put at 300 nM.

In the assay with LNCaP [4], `CO[C@H]1/C=C\C=C(/C)C(=O)NC2=CC(=O)C(NCCCCCCC#C[C@]3(O)CC[C@@]4(C)C5CCC6=CC(=O)CC[C@]6(C)[C@@]5(C)CC[C@@]43C)=C(C[C@H](C)C[C@H](OC)[C@@H](O)[C@H](C)/C=C(\C)C[C@@H]1OC(N)=O)C2=O` (stereo partly specified) came in with an IC50 greater than 1000 nM.

As for `CO[C@H]1/C=C\C=C(/C)C(=O)NC2=CC(=O)C(NCCCC#C[C@]3(O)CC[C@@]4(C)C5CCC6=CC(=O)CC[C@]6(C)[C@@]5(C)CC[C@@]43C)=C(C[C@H](C)C[C@H](OC)[C@@H](O)[C@H](C)/C=C(\C)C[C@@H]1OC(N)=O)C2=O` (stereo partly specified), the half-maximal inhibitory concentration (IC50) in the assay with LNCaP [4] amounted to 200 nM. This lies in the sub-micromolar range.

With `CO[C@H]1/C=C\C=C(/C)C(=O)NC2=CC(=O)C(NCCC#C[C@]3(O)CC[C@@]4(C)C5CCC6=CC(=O)CC[C@]6(C)[C@@]5(C)CC[C@@]43C)=C(C[C@H](C)C[C@H](OC)[C@@H](O)[C@H](C)/C=C(\C)C[C@@H]1OC(N)=O)C2=O` (stereo partly specified), in the assay with LNCaP [4], the IC50 is greater than 1000 nM.

`CO[C@H]1/C=C\C=C(/C)C(=O)NC2=CC(=O)C(NCCCC/C=C/[C@]3(O)CC[C@@]4(C)C5CC=C6CC7(CC[C@]6(C)[C@@]5(C)CC[C@@]43C)OCCO7)=C(C[C@H](C)C[C@H](OC)[C@@H](O)[C@H](C)/C=C(\C)C[C@@H]1OC(N)=O)C2=O` (stereo partly specified) came in with an IC50 with LNCaP [4] greater than 1000 nM.

Consider `CO[C@H]1/C=C\C=C(/C)C(=O)NC2=CC(=O)C(NCCCCCC[C@]3(O)CC[C@@]4(C)C5CC=C6CC7(CC[C@]6(C)[C@@]5(C)CC[C@]34C)OCCO7)=C(C[C@H](C)C[C@H](OC)[C@@H](O)[C@H](C)/C=C(\C)C[C@@H]1OC(N)=O)C2=O` (stereo partly specified), for which the IC50 with LNCaP [4] was greater than 1000 nM.

`CO[C@H]1/C=C\C=C(/C)C(=O)NC2=CC(=O)C(NCCCCCC#C[C@]3(O)CC[C@@]4(C)C5CCC6=CC(=O)CC[C@]6(C)[C@@]5(C)CC[C@@]43C)=C(C[C@H](C)C[C@H](OC)[C@@H](O)[C@H](C)/C=C(\C)C[C@@H]1OC(N)=O)C2=O` (stereo partly specified): the IC50 in the assay on LNCaP [4] was greater than 1000 nM.
